Test results taken from ChEMBL document CHEMBL1201862, “PubChem BioAssay data set” (2004).
The source made the active and inactive calls.

What was measured:
[1] = molecular target: Signal transducer and activator of transcription 1-alpha/beta (Homo sapiens, UniProt P42224); experiment: STAT3 blockade with qPCR and toxicity readouts – cell-based, STAT1 panel, cytotoxicity, late-stage follow-up, panel member STAT1 Inhibition (AID 2078)
[2] = molecular target: Signal transducer and activator of transcription 3 (Homo sapiens, UniProt P40763); experiment: STAT3 blockade with qPCR and toxicity readouts – cell-based, STAT1 panel, cytotoxicity, late-stage follow-up, panel member STAT3 Inhibition (AID 2078)
[3] = molecular target: T1, Streptokinase A (Streptococcus pyogenes serotype M1, UniProt P10520); experiment: viability-normalized secreted streptokinase activity reduction – plasminogen activation absorbance, OD405, dose response (AID 1914); assay type: functional, Streptococcus pyogenes M1 GAS;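 further: secreted streptokinase activity via plasminogen activation per viability signal from cell pellet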
T1 sequence (P10520 whole entry): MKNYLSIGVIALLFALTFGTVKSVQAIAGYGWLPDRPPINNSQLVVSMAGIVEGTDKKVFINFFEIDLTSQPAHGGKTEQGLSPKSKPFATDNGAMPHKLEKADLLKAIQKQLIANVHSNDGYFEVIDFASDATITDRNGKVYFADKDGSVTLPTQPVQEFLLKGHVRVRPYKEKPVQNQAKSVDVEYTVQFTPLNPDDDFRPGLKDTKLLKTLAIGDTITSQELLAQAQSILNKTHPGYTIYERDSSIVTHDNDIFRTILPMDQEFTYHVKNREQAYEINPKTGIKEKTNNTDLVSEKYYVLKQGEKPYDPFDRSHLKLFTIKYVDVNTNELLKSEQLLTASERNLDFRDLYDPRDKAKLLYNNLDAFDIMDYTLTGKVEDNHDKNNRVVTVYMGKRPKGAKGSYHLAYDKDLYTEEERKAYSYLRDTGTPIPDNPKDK

[4] = test system: Streptococcus; experiment: GAS UMAA2166 growth inhibition – luminescence, BacTiterGlo, counter-screen for streptokinase expression inhibitor project, dose response (AID 1915); assay type: functional, organism-based;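 further: potency for reduction of bacterial viability or growth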
[5] = test system: INS1; experiment: INS-1E survival protection against cytokine death – cell-based, luminescence, retest, dose response (AID 449756); assay type: functional; details: Rattus norvegicus;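 further: cell death triggered by IL-1 beta plus TNF-alpha plus IFN-gamma mixture; protective hits raise ATP signal compared with cytokine alone wells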
[6] = non-specific 3'UTR reporter inhibition in Clone20-Shn3RL – cell-based, Renilla luciferase, cherry-picked, counter-screen for Shn3 inhibitor project, dose response (AID 624133); assay type: functional
[7] = loss of viability in HepG2 cells – cell-based, CellTiter-Glo, cherry-picked, cytotoxicity control for Shn3 inhibitor project, dose response (AID 624134); assay type: functional
[8] = test system: Streptococcus sp. 'group A'; experiment: Streptococcus pyogenes SK(-)GAS viability under kanamycin – luminescence, BacTiterGlo, confirmation, counter-screen for streptokinase expression inhibitor project, dose response (AID 1900); assay type: functional, organism-based
[9] = molecular target: T2, Hexokinase-1 (Homo sapiens, UniProt P19367); experiment: HK1 enzyme activation by HKDC1 hits – biochemical, selectivity assay for HKDC1 activator project, dose response (AID 504762); assay type: functional
T2 sequence (P19367 whole entry): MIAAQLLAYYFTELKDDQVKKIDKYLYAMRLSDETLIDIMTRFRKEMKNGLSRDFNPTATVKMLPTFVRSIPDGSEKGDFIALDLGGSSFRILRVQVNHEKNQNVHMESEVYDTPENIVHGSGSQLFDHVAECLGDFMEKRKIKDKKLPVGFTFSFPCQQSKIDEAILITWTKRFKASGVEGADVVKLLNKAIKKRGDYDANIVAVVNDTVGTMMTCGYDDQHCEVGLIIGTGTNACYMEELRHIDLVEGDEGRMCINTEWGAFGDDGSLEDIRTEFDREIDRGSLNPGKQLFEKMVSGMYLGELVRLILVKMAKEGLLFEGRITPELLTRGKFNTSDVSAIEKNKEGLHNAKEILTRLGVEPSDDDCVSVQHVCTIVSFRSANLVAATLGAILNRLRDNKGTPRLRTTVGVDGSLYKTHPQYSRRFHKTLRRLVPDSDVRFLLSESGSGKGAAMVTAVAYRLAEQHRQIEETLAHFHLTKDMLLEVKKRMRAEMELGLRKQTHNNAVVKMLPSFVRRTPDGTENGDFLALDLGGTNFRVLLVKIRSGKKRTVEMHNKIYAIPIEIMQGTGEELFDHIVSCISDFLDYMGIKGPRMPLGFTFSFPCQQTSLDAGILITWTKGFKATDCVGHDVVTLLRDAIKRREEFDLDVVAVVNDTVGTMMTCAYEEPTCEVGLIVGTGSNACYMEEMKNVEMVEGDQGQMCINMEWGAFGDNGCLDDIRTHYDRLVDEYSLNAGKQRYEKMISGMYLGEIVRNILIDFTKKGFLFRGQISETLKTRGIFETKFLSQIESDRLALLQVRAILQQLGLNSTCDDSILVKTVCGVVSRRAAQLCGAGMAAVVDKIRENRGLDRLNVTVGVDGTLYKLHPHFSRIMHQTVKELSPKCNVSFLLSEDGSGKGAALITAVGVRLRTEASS

[10] = molecular target: T3, Hexokinase HKDC1 (Homo sapiens, UniProt Q2TB90); experiment: activation of HKDC1 glucose phosphorylation – biochemical, W721R variant, dose response (AID 504730); assay type: functional
T3 sequence (Q2TB90 whole entry): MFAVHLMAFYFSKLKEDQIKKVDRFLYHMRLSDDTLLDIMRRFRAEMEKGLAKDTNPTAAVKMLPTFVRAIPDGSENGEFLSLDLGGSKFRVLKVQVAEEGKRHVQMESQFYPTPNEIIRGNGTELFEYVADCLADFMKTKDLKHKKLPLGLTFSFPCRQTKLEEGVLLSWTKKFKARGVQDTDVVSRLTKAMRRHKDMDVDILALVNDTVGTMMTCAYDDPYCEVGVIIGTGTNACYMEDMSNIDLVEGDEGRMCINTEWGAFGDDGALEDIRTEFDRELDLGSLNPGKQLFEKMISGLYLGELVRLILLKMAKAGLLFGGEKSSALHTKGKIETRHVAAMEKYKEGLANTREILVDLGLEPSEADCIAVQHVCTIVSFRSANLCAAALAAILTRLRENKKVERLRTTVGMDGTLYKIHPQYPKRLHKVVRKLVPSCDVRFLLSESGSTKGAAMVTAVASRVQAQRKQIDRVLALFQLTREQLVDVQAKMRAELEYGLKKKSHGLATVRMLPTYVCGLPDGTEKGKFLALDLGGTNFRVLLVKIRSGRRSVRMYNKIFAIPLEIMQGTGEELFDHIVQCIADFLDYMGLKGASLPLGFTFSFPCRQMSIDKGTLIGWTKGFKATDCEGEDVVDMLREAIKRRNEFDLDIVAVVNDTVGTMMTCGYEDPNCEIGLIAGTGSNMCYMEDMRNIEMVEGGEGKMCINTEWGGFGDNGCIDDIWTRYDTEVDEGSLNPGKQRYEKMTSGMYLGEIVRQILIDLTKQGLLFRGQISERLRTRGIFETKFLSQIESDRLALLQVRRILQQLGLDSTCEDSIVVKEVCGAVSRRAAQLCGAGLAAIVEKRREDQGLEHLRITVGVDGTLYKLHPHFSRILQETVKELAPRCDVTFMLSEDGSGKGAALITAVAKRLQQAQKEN

[11] = molecular target: T4, Cannabinoid receptor 2 (Homo sapiens, UniProt P34972); experiment: SAR analysis of agonists of the Cannabinoid Receptor 2 using an Image-Based Assay. [Related pubchem assays (depositor defined):AID2013, AID2026]; assay type: functional
[12] = molecular target: T5, G-protein coupled receptor 35 (Homo sapiens, UniProt Q9HC97); experiment: SAR analysis of Agonists of the GPR35 Receptor using an Image-Based Assay - Set 2. [Related pubchem assays (depositor defined):AID2013, AID2026]; assay type: functional
[13] = molecular target: T5, G-protein coupled receptor 35; experiment: SAR analysis of Antagonists of the GPR35 Receptor using an Image-Based Assay - Set 3. [Related pubchem assays (depositor defined):AID2013, AID2026]; assay type: functional
[14] = molecular target: T4, Cannabinoid receptor 2; experiment: SAR analysis of antagonists of the Cannabinoid Receptor 2 using an Image-Based Assay. [Related pubchem assays (depositor defined):AID2013, AID2026]; assay type: functional
[15] = molecular target: G-protein coupled receptor 55 (Homo sapiens, UniProt Q9Y2T6); experiment: inhibition of LPI-stimulated GPR55 beta-arrestin translocation – imaging, U2OS, beta-arrestin-GFP, LPI agonist, primary screen (AID 2013); assay type: functional;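 further: antagonist potency measured as reduced agonist-driven arrestin aggregation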
[16] = molecular target: T6, Cannabinoid receptor 1 (Homo sapiens, UniProt P21554); experiment: SAR analysis of antagonists of the Cannabinoid Receptor 1 using an Image-Based Assay - Set 2. [Related pubchem assays (depositor defined):AID2013, AID2026]; assay type: functional
[17] = molecular target: T6, Cannabinoid receptor 1; experiment: SAR analysis of agonists of the Cannabinoid Receptor 1 using an Image-Based Assay - Set 2. [Related pubchem assays (depositor defined):AID2013, AID2026]; assay type: functional
[18] = molecular target: T7, Voltage-gated N-type calcium channel alpha-1B subunit/Amyloid beta A4 precursor protein-binding family A member 1 (Homo sapiens, UniProt Q00975+Q02410); assay type: protein assay
[19] = molecular target: T8, Low molecular weight phosphotyrosine protein phosphatase (Homo sapiens, UniProt P24666); assay type: functional; details: read-out: IC50_Mean;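 further: Dose-response confirmation assay measuring inhibition of LMPTP enzyme activity by fluorescence intensity read-out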
T8 sequence (P24666 whole entry): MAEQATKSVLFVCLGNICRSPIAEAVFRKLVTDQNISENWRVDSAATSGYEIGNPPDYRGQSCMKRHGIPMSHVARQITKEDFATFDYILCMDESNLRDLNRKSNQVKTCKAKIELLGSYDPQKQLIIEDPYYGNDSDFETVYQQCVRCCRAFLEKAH

[20] = molecular target: Lytic switch protein BZLF1 (Epstein-Barr virus (strain B95-8) (HHV-4) (Human herpesvirus 4), UniProt P03206); experiment: inhibition of BZLF1 ZTA DNA binding – biochemical, fluorescence polarization, Epstein-Barr virus, 1536-well, counter-screen for EBNA-1 inhibitor project, dose response (AID 2377); set-up: species or system human gammaherpesvirus 4;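 further: fluorescence polarization of Cy5-labelled ZRE DNA probe bound by purified Zta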
[21] = molecular target: T7, Voltage-gated N-type calcium channel alpha-1B subunit/Amyloid beta A4 precursor protein-binding family A member 1; assay type: protein assay; remark: listed apart in the source
[22] = molecular target: Epstein-Barr nuclear antigen 1 (Epstein-Barr virus (strain B95-8) (HHV-4) (Human herpesvirus 4), UniProt P03211); experiment: inhibition of EBV nuclear antigen 1 DNA binding – biochemical, fluorescence polarization, 1536-well, dose response (AID 2381); set-up: species or system human gammaherpesvirus 4;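 further: fluorescence polarization of a Cy5 DNA probe bound by EBNA-1 protein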
[23] = molecular target: T9, SUMO-activating enzyme (Homo sapiens, UniProt Q9UBT2); experiment: blockers of SAE1/SAE2–UBC9 SUMO transfer – biochemical, HTRF, uHTS, primary screen (AID 2006); assay type: protein-complex assay
[24] = molecular target: T9, SUMO-activating enzyme; experiment: blockers of UBC9-mediated SUMO conjugation – biochemical, AlphaScreen, SUMOylation inhibitor project, confirmation (AID 2018); assay type: functional
[25] = molecular target: DNA (cytosine-5)-methyltransferase 1 (Homo sapiens, UniProt P26358); experiment: inhibition of DNA methylation by DNMT1 – biochemical, fluorescent molecular beacon, confirmation (AID 602386); assay type: functional

T6 sequence (P21554 whole entry): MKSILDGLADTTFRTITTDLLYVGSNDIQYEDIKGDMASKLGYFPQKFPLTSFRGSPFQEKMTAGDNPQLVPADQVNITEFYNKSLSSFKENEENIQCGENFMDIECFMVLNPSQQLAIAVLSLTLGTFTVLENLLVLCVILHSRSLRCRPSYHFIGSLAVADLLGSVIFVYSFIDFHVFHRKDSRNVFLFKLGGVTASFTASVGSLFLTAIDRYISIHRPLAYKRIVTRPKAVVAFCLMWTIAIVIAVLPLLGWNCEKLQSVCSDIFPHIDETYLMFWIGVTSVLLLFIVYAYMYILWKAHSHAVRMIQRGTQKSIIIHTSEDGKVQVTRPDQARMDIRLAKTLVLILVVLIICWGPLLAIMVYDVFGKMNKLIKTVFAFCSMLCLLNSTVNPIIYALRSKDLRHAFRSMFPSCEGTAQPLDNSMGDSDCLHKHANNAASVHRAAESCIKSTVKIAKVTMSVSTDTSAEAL
T7 sequence (Q00975 whole entry): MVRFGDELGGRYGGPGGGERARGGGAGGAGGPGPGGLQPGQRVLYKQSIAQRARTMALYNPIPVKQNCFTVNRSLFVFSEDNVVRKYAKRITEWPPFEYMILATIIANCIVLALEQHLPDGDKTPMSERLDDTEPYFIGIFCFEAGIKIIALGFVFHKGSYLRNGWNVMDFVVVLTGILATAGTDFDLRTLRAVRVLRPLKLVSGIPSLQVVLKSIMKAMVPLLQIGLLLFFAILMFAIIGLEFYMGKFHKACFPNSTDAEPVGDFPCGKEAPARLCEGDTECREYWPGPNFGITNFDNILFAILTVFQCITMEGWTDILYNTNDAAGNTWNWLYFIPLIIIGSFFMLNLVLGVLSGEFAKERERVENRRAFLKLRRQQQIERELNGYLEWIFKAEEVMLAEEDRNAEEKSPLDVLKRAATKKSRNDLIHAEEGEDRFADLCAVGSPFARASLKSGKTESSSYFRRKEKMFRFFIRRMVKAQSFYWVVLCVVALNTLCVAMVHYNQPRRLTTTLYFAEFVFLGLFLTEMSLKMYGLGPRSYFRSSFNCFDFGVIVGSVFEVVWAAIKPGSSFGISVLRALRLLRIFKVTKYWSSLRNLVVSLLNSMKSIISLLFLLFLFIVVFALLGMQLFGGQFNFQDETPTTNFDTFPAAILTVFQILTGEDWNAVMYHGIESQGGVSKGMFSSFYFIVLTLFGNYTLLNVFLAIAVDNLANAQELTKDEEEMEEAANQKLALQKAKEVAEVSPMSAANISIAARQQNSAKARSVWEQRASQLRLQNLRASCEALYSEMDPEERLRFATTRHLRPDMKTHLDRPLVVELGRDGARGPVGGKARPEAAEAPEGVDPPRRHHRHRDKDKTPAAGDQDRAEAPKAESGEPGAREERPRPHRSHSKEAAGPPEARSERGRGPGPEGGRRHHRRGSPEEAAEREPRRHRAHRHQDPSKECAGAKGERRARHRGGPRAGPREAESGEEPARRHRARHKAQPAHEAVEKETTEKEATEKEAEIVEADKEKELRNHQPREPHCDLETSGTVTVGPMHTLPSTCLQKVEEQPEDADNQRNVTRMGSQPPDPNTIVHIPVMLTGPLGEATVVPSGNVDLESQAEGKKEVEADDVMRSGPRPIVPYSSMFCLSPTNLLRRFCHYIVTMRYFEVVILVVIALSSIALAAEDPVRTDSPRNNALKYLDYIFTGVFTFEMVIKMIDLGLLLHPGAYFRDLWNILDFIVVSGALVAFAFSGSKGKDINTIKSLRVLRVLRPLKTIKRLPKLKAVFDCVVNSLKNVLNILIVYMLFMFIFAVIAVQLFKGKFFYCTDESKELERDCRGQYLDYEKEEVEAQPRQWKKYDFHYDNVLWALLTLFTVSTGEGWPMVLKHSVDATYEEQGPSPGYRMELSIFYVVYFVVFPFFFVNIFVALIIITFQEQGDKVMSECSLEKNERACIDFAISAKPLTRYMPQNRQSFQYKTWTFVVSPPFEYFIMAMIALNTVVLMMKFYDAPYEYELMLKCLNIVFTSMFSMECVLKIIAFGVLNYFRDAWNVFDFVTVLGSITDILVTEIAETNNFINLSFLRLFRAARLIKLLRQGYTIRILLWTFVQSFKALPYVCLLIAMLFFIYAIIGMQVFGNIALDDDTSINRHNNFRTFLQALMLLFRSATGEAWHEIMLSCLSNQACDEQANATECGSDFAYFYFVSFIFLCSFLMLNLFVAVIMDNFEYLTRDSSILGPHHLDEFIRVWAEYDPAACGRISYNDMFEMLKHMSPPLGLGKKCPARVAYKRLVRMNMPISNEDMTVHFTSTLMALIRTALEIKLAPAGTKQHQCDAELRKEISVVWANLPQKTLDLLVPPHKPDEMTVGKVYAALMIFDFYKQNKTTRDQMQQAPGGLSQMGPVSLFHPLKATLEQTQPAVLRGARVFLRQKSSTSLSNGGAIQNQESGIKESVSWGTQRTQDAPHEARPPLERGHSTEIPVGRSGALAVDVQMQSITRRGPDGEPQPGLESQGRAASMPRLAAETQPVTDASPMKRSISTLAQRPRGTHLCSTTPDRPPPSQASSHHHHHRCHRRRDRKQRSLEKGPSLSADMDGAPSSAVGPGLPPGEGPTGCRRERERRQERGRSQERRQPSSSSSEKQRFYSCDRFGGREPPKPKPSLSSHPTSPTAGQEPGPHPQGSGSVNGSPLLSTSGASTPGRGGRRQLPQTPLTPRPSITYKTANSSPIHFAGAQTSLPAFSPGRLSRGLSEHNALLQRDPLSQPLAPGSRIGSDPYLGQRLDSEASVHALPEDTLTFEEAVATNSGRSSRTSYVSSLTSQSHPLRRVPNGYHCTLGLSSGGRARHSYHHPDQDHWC
T7 sequence (Q02410 whole entry): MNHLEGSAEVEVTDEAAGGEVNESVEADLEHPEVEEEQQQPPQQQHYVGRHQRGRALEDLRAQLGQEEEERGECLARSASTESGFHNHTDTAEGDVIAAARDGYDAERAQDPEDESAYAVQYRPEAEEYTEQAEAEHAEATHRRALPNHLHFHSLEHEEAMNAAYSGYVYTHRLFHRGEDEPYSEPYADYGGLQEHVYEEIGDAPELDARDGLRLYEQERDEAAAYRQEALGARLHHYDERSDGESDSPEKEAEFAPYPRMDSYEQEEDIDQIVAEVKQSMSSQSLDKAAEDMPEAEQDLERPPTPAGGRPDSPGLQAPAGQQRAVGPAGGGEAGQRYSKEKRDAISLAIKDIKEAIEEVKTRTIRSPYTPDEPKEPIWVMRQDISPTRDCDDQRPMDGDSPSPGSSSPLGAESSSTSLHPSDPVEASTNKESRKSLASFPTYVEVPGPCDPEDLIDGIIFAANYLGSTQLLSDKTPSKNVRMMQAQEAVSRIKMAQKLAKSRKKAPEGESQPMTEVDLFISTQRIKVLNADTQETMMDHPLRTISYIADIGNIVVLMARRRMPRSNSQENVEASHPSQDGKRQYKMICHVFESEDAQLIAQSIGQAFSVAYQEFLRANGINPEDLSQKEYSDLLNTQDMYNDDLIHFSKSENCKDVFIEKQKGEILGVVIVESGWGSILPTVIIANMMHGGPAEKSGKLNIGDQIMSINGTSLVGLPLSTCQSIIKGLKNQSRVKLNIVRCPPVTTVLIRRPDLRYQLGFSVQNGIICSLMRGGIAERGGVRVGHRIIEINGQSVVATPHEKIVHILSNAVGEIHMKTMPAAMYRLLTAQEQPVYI
T4 sequence (P34972 whole entry): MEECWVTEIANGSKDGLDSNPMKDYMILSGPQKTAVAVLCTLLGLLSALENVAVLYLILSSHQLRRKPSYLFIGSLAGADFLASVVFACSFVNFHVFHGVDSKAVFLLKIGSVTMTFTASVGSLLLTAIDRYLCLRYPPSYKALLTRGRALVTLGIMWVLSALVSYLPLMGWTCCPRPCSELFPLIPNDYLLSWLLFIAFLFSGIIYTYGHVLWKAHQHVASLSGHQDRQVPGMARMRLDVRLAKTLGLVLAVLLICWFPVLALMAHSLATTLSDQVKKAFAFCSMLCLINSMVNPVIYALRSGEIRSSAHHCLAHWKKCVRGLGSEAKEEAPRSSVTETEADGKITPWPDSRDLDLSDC
T5 sequence (Q9HC97 whole entry): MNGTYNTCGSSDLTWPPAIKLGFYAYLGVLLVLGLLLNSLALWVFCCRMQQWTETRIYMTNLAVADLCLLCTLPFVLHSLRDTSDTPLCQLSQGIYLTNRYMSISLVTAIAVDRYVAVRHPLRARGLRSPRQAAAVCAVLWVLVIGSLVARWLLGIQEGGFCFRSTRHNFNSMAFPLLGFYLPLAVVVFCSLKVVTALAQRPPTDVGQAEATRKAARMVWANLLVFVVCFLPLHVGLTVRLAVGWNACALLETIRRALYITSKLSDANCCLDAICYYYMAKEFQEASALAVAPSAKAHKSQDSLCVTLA
Signal transducer and activator of transcription 3, sequence (P40763 whole entry): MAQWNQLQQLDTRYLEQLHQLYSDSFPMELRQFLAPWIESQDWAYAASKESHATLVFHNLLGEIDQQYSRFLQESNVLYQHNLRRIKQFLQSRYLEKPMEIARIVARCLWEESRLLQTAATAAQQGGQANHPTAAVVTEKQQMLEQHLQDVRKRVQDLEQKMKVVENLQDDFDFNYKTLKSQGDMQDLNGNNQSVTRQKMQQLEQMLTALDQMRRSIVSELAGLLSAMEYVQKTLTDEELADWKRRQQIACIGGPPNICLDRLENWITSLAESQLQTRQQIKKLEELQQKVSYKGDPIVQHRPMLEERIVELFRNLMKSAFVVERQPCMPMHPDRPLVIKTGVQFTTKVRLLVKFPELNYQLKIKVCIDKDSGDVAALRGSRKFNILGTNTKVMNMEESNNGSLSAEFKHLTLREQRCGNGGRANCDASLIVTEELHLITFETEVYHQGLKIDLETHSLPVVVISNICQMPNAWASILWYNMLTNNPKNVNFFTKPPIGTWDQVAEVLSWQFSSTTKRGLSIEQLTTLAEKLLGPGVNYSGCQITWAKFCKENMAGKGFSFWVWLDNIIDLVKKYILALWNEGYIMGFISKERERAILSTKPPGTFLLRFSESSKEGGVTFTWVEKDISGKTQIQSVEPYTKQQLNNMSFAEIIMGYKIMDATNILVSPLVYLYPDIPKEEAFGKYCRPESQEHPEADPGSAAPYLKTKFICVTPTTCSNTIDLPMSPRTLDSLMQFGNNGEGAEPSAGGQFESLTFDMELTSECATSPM

## c1ccc(CC2CCN(c3ncnc4sc5c(c34)CCCC5)CC2)cc1
[1]
  IC50: > 55.7 µM (inactive)
[2]
  IC50: > 55.7 µM (inactive)

## Fc1ccccc1NC1=NN=C(c2ccccc2)CS1
[3]
  EC50: > 150 µM (not active)
[4]
  EC50: 9 µM (active)
[5]
  AC50: 7.51 µM (active)
[6]
  AC50: 11.1 µM (active)
[7]
  AC50: 33.5 µM (active)
[8]
  EC50: 4.31 µM (active)
[9]
  EC50: 29.7 µM (inactive)
[10]
  EC50: 20.2 µM (inactive)

## Cc1nc(N2CCN(C(=O)c3ccco3)CC2)c2c3c(sc2n1)CCCC3
[11]
  EC50: > 32 µM (inactive)
[12]
  EC50: > 32 µM (inactive)
[13]
  IC50: > 32 µM (inactive)
[14]
  IC50: > 32 µM (inactive)
[15]
  IC50: 1.58 µM (active)
[16]
  IC50: > 32 µM (inactive)
[17]
  EC50: > 32 µM (inactive)

## O=C(COc1ccc(/C=N/NC(=O)c2ccc(O)cc2)cc1)Nc1ccc([N+](=O)[O-])cc1
[18]
  IC50: 9.71 µM (active)
[19]
  IC50: 9.58 µM (active)
[20]
  IC50: > 111 µM (not active)
[21]
  IC50: > 50 µM (inactive)
[22]
  IC50: 14.5 µM (not active)
[23]
  IC50: 8.49 µM (active)
[24]
  IC50: 9.81 µM (active)
[25]
  IC50: 8.43 µM (active)
